These results are taken from US9958439B2, “Carbohydrate detection” (RICHTER LIFE SCIENCE DEVELOPMENT AB, priority 2012, dated 2018).

Test [1] relates to biofilm of S. enteritidis wt strain 3934 and isogenic mutants ΔbscA, ΔcsgA, ΔcsgD. The test is described as follows: LCO assay for fluorescence confocal analysis of biofilm and biofilm morphology. The format is cell-based, Salmonella enteritidis. The text has this:
Fluorescence confocal analysis (left side) and phase contrast analysis (right side) of the same slide are shown side by side.
Glass cover-slips were introduced to the wells of a 6-well plate (according to the set-up shown in FIG. 2A) to provide surfaces for biofilm formation, which at the end of experiment could be easily removed for microscope analysis. To prepare for the biofilm experiment, individual cultures of S. enteritidis wt strain 3934 and isogenic mutants ΔbscA, ΔcsgA, and ΔcsgD were grown in LB medium in flasks overnight. Each culture was diluted 100-fold in fresh LB and cultivated in a shaking incubator (230 rpm) at 37° C. to OD600=0.6. Cultures were diluted to a culture density of 10^5 CFU/ml in LB without salt and dispensed into the cover-slip containing 6 well plates in 8 ml aliquots. After incubating the plates for 48 h at 28° C., glass cover-slips were removed and washed twice with PBS before fixation in 4 ml of 4% formaldehyde for 1 h. […] PBS functioned as the negative control, used to assess the level of auto-fluorescence. Treated slides were then washed twice with PBS and mounted with Vectashield® for fluorescence-based confocal laser scanning microscopy analysis. Specifically, the edge of the biofilm formed at the liquid air interface was visualized using the appropriate fluorescence filters. […] The right side is an overlay of an optical inspection of bacterial presence by phase contrast with LCO fluorescence. Phase contrast is a traditional method for visual confirmation of biofilm attachment on surfaces.

The test system of test [2] is biofilm (curli, cellulose) of S. enteritidis 3934 wt and isogenic mutants. The test is described as follows: Real time tracking of biofilm formation with h-FTAA. Type of test: cell-based, Salmonella enteritidis. The note with it: 2 μg/ml in culture, curli Ex 405/Em 556 nm, cellulose Ex 500/Em 600 nm, hourly over 48 h. The procedure: A) comparison of OD600 (. . . ) against GFP signal (_) of a wt biofilm culture over 48 hours; B) correlation of OD600 against GFP signal; […].
The turbidity of a bacterial culture, measured by absorbance at OD600, is used to define culture density. Expression of GFP provides a direct representation of bacterial growth and culture density. S. enteritidis 3934 wt and isogenic mutants ΔbscA, ΔcsgA, and ΔcsgD were transformed with the plasmid P2777 which carries the gfp gene for a more direct representation of culture density through fluorescence detection. […] […]. RFU data of GFP and h-FTAA from the four plates were combined in a single plot to visualize the hourly change in signals over time.

Turning to `O=C(O)Cc1cc(-c2ccc(-c3ccc(C(=O)O)s3)s2)sc1-c1ccc(-c2sc(-c3ccc(-c4ccc(C(=O)O)s4)s3)cc2CC(=O)O)s1` [h-FTAA, hepta Formic Thiophene Acetic Acid], the “fluorescent signal from the LCO on biofilm versus phase contrast microscopy” value in test [1] (2 μg/ml LCO, fixed and washed cover-slip biofilm) was “coincides with visible bacteria aggregates”. Moreover, the “fluorescent signal with cellulose+ curli− ΔcsgA biofilm” value in test [1] (2 μg/ml, ΔcsgA, confocal microscopy) is reported as “gave a fluorescent signal”. For the same molecule, the “real time analysis of biofilm formation” value in test [2] is given as “enables real time analysis of biofilm formation”.
